pEC50: −log10 of the molar value. Where “and” joins values, the source holds several entries; their conditions need not be identical. Identical values can stand only once. Like-named read-outs stand apart in the source and are kept apart here.
Columns and labels:
human FXR (NR1H4) = target: T1, human FXR (NR1H4) (Homo sapiens, UniProt Q96RI1); test: Human FXR (NR1H4) agonist assessment, FXRE-NanoLuc reporter in HEK293T cells; assay type: cell-based
T1 sequence (Q96RI1 1-476 isoform Q96RI1-1): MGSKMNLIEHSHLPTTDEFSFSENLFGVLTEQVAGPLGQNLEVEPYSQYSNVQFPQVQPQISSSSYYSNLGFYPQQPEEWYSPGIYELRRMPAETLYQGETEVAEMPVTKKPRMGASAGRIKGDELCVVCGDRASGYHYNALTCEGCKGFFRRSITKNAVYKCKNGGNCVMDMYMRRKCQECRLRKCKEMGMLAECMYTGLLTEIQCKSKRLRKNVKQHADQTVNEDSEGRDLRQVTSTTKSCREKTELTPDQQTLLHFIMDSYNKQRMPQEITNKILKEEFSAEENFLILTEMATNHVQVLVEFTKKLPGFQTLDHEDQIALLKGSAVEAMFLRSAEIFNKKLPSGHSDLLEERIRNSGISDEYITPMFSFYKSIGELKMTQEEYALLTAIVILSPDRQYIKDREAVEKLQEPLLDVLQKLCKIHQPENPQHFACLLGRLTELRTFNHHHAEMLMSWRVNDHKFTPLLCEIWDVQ
In short: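 HEK293T cells stably expressing human FXR with an FXRE-NanoLuc reporter were treated with compounds for 24 hr at 37 °C, with 0.01% DMSO as negative control. Medium was read for luminescence after 5 min with coelenterazine. EC50 was fitted by sigmoid to concentration-response data.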

MRGPRX4 = MRGPRX4 (Homo sapiens, UniProt Q96LA9); test: MRGPRX4 activation, Fluo-8 Ca2+ FLIPR assay in HEK293T cells stably expressing MRGPRX4; assay type: cell-based; design: key to MRGPRX4 activation, Average / MRGPRX4 activation, Ave.: fluorescence change dF/F0; settings: for EC50: MRGPRX4 activation, Ca2+ fluorescence, no activation in tested range reported as III, read-out: Activity (EC50 μM)
In short: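 Cells seeded overnight to >95% confluence, loaded 40-60 min at room temperature with 2 μM Fluo-8 AM, then kept in HHBS. Baseline read 30 s, compound added, signal followed 150 s more.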

[1] = FXR activation, HEK293T FXRE-NanoLuc reporter, 24 hr, read-out: EC50
[2] = FXR activation, HEK293T FXRE-NanoLuc reporter, 24 hr

Chain of MRGPRX4 (Q96LA9 whole entry): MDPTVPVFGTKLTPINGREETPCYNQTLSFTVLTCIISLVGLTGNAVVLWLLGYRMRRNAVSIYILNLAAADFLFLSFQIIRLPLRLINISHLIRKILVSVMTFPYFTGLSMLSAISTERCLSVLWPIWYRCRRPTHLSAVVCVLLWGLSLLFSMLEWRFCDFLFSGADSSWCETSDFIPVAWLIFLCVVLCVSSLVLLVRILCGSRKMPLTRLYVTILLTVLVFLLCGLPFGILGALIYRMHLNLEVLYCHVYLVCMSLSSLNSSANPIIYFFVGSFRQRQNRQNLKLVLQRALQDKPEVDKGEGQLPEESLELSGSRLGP

SMILES | Efficacy (maximum measured induction of NanoLuc, normalized to CDCA set as 100%) (human FXR (NR1H4)) | pEC50 (human FXR (NR1H4); [1]) | MRGPRX4 activation, fluorescence change (dF/F0), Average (MRGPRX4; Conc. (Log[M]) −4) | MRGPRX4 activation, fluorescence change (dF/F0), Average (MRGPRX4; Conc. (Log[M]) −4.5) | MRGPRX4 activation, fluorescence change (dF/F0), Average (MRGPRX4; Conc. (Log[M]) −5) | MRGPRX4 activation, fluorescence change (dF/F0), Average (MRGPRX4; Conc. (Log[M]) −5.5) | MRGPRX4 activation, fluorescence change (dF/F0), Average (MRGPRX4; Conc. (Log[M]) −6) | MRGPRX4 activation, fluorescence change (dF/F0), Average (MRGPRX4; Conc. (Log[M]) −7) | MRGPRX4 activation, fluorescence change (dF/F0), Average (MRGPRX4; Conc. (Log[M]) −8) | MRGPRX4 activation, fluorescence change (dF/F0), Average (MRGPRX4; Conc. (Log[M]) −9) | EC50 (MRGPRX4) | Efficacy (maximum measured induction of NanoLuc, normalized to CDCA set as 100%) (human FXR (NR1H4); [2]) | further results
CC[C@H]1[C@@H](O)[C@@H]2[C@H](CC[C@]3(C)[C@@H]([C@H](C)CCC(=O)O)CC[C@@H]23)[C@@]2(C)CCCC[C@@H]12 [compound 10] | C (key: A: efficacy >400%; B: 300%<efficacy <=400%; C: 100%<efficacy <=300%; D: efficacy <=100%) | 5.00 to 6.00 | 0.019 | −0.031 | −0.037 | −0.032 | −0.064 | −0.043 | −0.045 | −0.048 | > 100 µM | – | –
C[C@H](CCC(=O)O)[C@H]1CC[C@H]2[C@@H]3CC[C@@H]4CC(=O)CC[C@]4(C)[C@H]3CC[C@]12C [compound 16] | – | – | 0.416 | 0.322 | 0.130 | −0.020 | −0.010 | 0.013 | 0.012 | −0.005 | – | C (100%<efficacy <=300%) | pEC50 (human FXR (NR1H4)): < 5.00; pEC50 (MRGPRX4): > 4.30
C[C@H](CCC(=O)O)[C@H]1CC[C@H]2[C@@H]3CC[C@@H]4CCCC[C@]4(C)[C@H]3CC[C@]12C [compound 17] | B (key: A: efficacy >400%; B: 300%<efficacy <=400%; C: 100%<efficacy <=300%; D: efficacy <=100%) | 5.00 to 6.00 | 0.036 and 0.042 | – | – | – | – | – | – | – | < 50 µM | – | –
CC(=O)CC[C@@H](C)[C@H]1CC[C@H]2[C@@H]3CC[C@@H]4CCCC[C@]4(C)[C@H]3CC[C@]12C [compound 21] | – | 5.00 to 6.00 | – | – | – | – | – | – | – | – | > 100 µM | C (100%<efficacy <=300%) | –
CC[C@H]1[C@@H](O)[C@@H]2[C@H](CC[C@]3(C)[C@@H]([C@H](C)CC(=O)O)CC[C@@H]23)[C@@]2(C)CCCC[C@@H]12 [compound 26] | – | < 5.00 | −0.070 | −0.059 | −0.090 | −0.062 | −0.067 | −0.072 | −0.090 | −0.084 | > 100 µM | C (100%<efficacy <=300%) | –
CCOC(=O)C(=O)NCC[C@@H](C)[C@H]1CC[C@H]2[C@@H]3[C@H](O)[C@H](CC)[C@@H]4CCCC[C@]4(C)[C@H]3CC[C@]12C [compound 53] | – | > 6.00 | – | – | – | – | – | – | – | – | > 100 µM | C (100%<efficacy <=300%) | MRGPRX4 activation, Average (MRGPRX4; E3-9, Conc. (Log[M]) −4.0): 0.030; MRGPRX4 activation, Average (MRGPRX4; E3-9, Conc. (Log[M]) −4.5): 0.016; MRGPRX4 activation, Average (MRGPRX4; E3-9, Conc. (Log[M]) −5.0): 0.013; MRGPRX4 activation, Average (MRGPRX4; E3-9, Conc. (Log[M]) −5.4): 0.020; MRGPRX4 activation, Average (MRGPRX4; E3-9, Conc. (Log[M]) −5.9): 0.011; MRGPRX4 activation, Average (MRGPRX4; E3-9, Conc. (Log[M]) −6.4): 0.013; MRGPRX4 activation, Average (MRGPRX4; E3-9, Conc. (Log[M]) −6.9): 0.013; MRGPRX4 activation, Average (MRGPRX4; E3-9, Conc. (Log[M]) −7.3): 0.013; MRGPRX4 activation, Average (MRGPRX4; E3-9, Conc. (Log[M]) −7.8): 0.008; MRGPRX4 activation, Average (MRGPRX4; E3-9, Conc. (Log[M]) −8.3): 0.011
CC[C@H]1[C@@H](O)[C@@H]2[C@H](CC[C@]3(C)[C@@H]([C@H](C)CCC(=O)O)CC[C@@H]23)[C@@]2(C)CCC(F)(F)C[C@@H]12 [compound 55] | – | > 6.00 | – | – | – | – | – | – | – | – | > 100 µM | C (100%<efficacy <=300%) | MRGPRX4 activation, Average (MRGPRX4; E3-9, Conc. (Log[M]) −4.0): 0.006; MRGPRX4 activation, Average (MRGPRX4; E3-9, Conc. (Log[M]) −4.5): 0.004; MRGPRX4 activation, Average (MRGPRX4; E3-9, Conc. (Log[M]) −5.0): 0.018; MRGPRX4 activation, Average (MRGPRX4; E3-9, Conc. (Log[M]) −5.4): 0.023; MRGPRX4 activation, Average (MRGPRX4; E3-9, Conc. (Log[M]) −5.9): 0.019; MRGPRX4 activation, Average (MRGPRX4; E3-9, Conc. (Log[M]) −6.4): 0.019; MRGPRX4 activation, Average (MRGPRX4; E3-9, Conc. (Log[M]) −6.9): 0.016; MRGPRX4 activation, Average (MRGPRX4; E3-9, Conc. (Log[M]) −7.3): 0.019; MRGPRX4 activation, Average (MRGPRX4; E3-9, Conc. (Log[M]) −7.8): 0.016; MRGPRX4 activation, Average (MRGPRX4; E3-9, Conc. (Log[M]) −8.3): 0.018
CC[C@H]1[C@@H](O)[C@@H]2[C@H](CC[C@]3(C)[C@@H]([C@H](C)CO)CC[C@@H]23)[C@@]2(C)CCCC[C@@H]12 [compound 73] | – | 5.00 to 6.00 | 0.098 | 0.042 | −0.031 | −0.031 | −0.020 | −0.023 | −0.023 | −0.014 | > 100 µM | A (efficacy >400%) | –
C[C@H](CCCO)[C@H]1CC[C@H]2[C@@H]3CC[C@@H]4CCCC[C@]4(C)[C@H]3CC[C@]12C [compound 77] | B (key: A: efficacy >400%; B: 300%<efficacy <=400%; C: 100%<efficacy <=300%; D: efficacy <=100%) | 5.00 to 6.00 | 0.067 | 0.014 | −0.029 | −0.023 | −0.017 | −0.009 | −0.014 | −0.012 | > 100 µM | – | –
C[C@H](CCCCC(=O)O)[C@H]1CC[C@H]2[C@@H]3CC[C@@H]4C[C@H](O)CC[C@]4(C)[C@H]3CC[C@]12C [compound 84] | – | 5.00 to 6.00 | 0.287 | 0.065 | 0.021 | −0.001 | 0.009 | −0.014 | 0.002 | −0.014 | < 50 µM | B (300%<efficacy <=400%) | –

Reference: patent publication US20260116910A1, “POLYCYCLIC COMPOUNDS AND METHODS THEREOF” (HEPAITECH (BEIJING) BIOPHARMA TECHNOLOGY CO., LTD., priority 2021, published 2026)
